Test results as given in ChEMBL document CHEMBL1133598, “Synthesis, molecular modeling, and pharmacological testing of bis-quinolinium cyclophanes: potent, non-peptidic blockers of the apamin-sensitive Ca(2+)-activated K(+) channel” (J Med Chem, 2000).

Legend:
[1] = target: Small conductance calcium-activated potassium channel (Rattus norvegicus, UniProt P70604+P70606+P70605); assay: The blocking of apamin-sensitive [Ca2+]-activated K+ (SKCa) channel was assessed by the compounds ability to inhibit the after-hyperpolarization in cultured rat superior cervical ganglion neurons; type: functional
[2] = target: Small conductance calcium-activated potassium channel (Rattus norvegicus) (UniProt P70604+P70606+P70605); assay: The ratio of compound concentrations and dequalinium that cause 50% inhibition of the after-hyperpolarization; type: functional

Compound | IC50 [1] [nM] | EMR [2]
c1ccc2c(c1)c1cc[n+]2Cc2ccc(cc2)-c2ccc(cc2)C[n+]2ccc(c3ccccc32)NCc2ccc(cc2)-c2ccc(cc2)CN1 | 430 | 0.89
Nc1cc[n+](Cc2ccc(/C=C\c3ccc(C[n+]4ccc(N)c5ccccc54)cc3)cc2)c2ccccc12 | 190 | 0.24
Cc1cc(N)c2ccccc2[n+]1CCCCCCCCCC[n+]1c(C)cc(N)c2ccccc21.[Cl-].[Cl-] [DEQUALINIUM CHLORIDE] | 650 | 1
Oc1c2cc(I)cc1C[n+]1ccc(c3ccccc31)NCc1ccc(cc1)CNc1cc[n+](c3ccccc13)C2 | 100 | 0.16
C1=C\c2ccc(cc2)C[n+]2ccc(c3ccccc32)NCc2ccc(cc2)Cc2ccc(cc2)CNc2cc[n+](c3ccccc23)Cc2ccc/1cc2 | 250 | 1.1
Nc1cc[n+](Cc2ccc3c(c2)Cc2cc(C[n+]4ccc(N)c5ccccc54)ccc2-3)c2ccccc12 | 310 | 0.33
Nc1cc[n+](Cc2ccc(C[n+]3ccc(N)c4ccccc43)cc2)c2ccccc12 | 2800 | 3.7
Oc1c2cccc1C[n+]1ccc(c3ccccc31)NCc1ccc(cc1)CNc1cc[n+](c3ccccc13)C2 | 60 | 0.14
c1ccc2c(c1)c1cc[n+]2Cc2ccc(cc2)-c2ccc(cc2)C[n+]2ccc(c3ccccc32)NCc2ccc(cc2)Cc2ccc(cc2)CN1 | 150 | 0.26
c1ccc2c(c1)c1cc[n+]2Cc2ccc(cc2)Cc2ccc(cc2)C[n+]2ccc(c3ccccc32)NCc2ccc(cc2)Cc2ccc(cc2)CN1 | 260 | 0.31
Nc1cc[n+](Cc2cccc(-c3cccc(C[n+]4ccc(N)c5ccccc54)c3)c2)c2ccccc12 | 290 | 0.55
Nc1cc[n+](Cc2cccc(C[n+]3ccc(N)c4ccccc43)c2)c2ccccc12 | – | 1.32
c1cc2cc(c1)CNc1cc[n+](c3ccccc13)Cc1ccc(cc1)C[n+]1ccc(c3ccccc31)NC2 | 70 | 0.18
c1cc2cc(c1)C[n+]1ccc(c3ccccc31)NCc1ccc(cc1)CNc1cc[n+](c3ccccc13)C2 | 3 | 0.01
c1cc2nc(c1)-c1ccc(cc1)C[n+]1ccc(c3ccccc31)NCc1ccc(cc1)Cc1ccc(cc1)CNc1cc[n+](c3ccccc13)Cc1ccc-2cc1 | 380 | 0.88
c1ccc2c(c1)c1cc[n+]2Cc2ccc(cc2)-c2ccc(cc2)C[n+]2ccc(c3ccccc32)NCCCCCCCCCCN1 | 170 | 0.26

Compound | IC50 [1] [nM] | EMR [2]
Nc1cc[n+](Cc2ccc(-c3ccc(C[n+]4ccc(N)c5ccccc54)cc3)cc2)c2ccccc12 | 380 | 0.4
COc1c2cccc1C[n+]1ccc(c3ccccc31)NCc1ccc(cc1)CNc1cc[n+](c3ccccc13)C2 | 25 | 0.019
Nc1cc[n+](Cc2ccc(CCc3ccc(C[n+]4ccc(N)c5ccccc54)cc3)cc2)c2ccccc12 | 410 | 0.71
c1ccc2c(c1)c1cc[n+]2Cc2ccc(cc2)CCc2ccc(cc2)C[n+]2ccc(c3ccccc32)NCCCCCCCCCCN1 | 180 | 0.57
Nc1cc[n+](Cc2ccc(-c3cccc(-c4ccc(C[n+]5ccc(N)c6ccccc65)cc4)n3)cc2)c2ccccc12 | 360 | 0.59
c1ccc2c(c1)c1cc[n+]2Cc2ccc3c(c2)Cc2cc(ccc2-3)C[n+]2ccc(c3ccccc32)NCc2ccc(cc2)-c2ccc(cc2)CN1 | 120 | 0.15
C1=C\c2ccc(cc2)C[n+]2ccc(c3ccccc32)NCCCCCCCCCCNc2cc[n+](c3ccccc23)Cc2ccc/1cc2 | 150 | 0.29
c1ccc2c(c1)c1cc[n+]2Cc2ccc(cc2)Cc2ccc(cc2)C[n+]2ccc(c3ccccc32)NCc2ccc(cc2)-c2ccc(cc2)CN1 | 280 | 0.8
Nc1cc[n+](Cc2ccc(Cc3ccc(C[n+]4ccc(N)c5ccccc54)cc3)cc2)c2ccccc12 | 450 | 0.39
c1ccc2c(c1)c1cc[n+]2Cc2ccc(cc2)C[n+]2ccc(c3ccccc32)NCc2ccc(cc2)CN1 | 28 | 0.05
c1cc2cc(c1)-c1cccc(c1)C[n+]1ccc(c3ccccc31)NCCCCCCCCCCNc1cc[n+](c3ccccc13)C2 | 110 | 0.28
c1ccc2c(c1)c1cc[n+]2CCCCCCCCCC[n+]2ccc(c3ccccc32)NCc2ccc(cc2)-c2ccc(cc2)CN1 | 210 | 0.25
c1cc2cc(c1)CNc1cc[n+](c3ccccc13)Cc1cccc(c1)C[n+]1ccc(c3ccccc31)NC2 | 130 | 0.22
c1ccc2c(c1)c1cc[n+]2Cc2ccc(cc2)Cc2ccc(cc2)C[n+]2ccc(c3ccccc32)NCCCCCCCCCCN1 [UCL-1530] | 80 | 0.16
c1ccc2c(c1)c1cc[n+]2Cc2ccc3c(c2)Cc2cc(ccc2-3)C[n+]2ccc(c3ccccc32)NCCCCCCCCCCN1 | 90 | 0.11
